Experimental data reported in paper PMC7344389, “Discovery of Anti-Amoebic Inhibitors from Screening the MMV Pandemic Response Box on Balamuthia mandrillaris, Naegleria fowleri, and Acanthamoeba castellanii” (Pathogens, 2020).
Where “and” joins values, the source holds several entries; their conditions need not be identical. Equal entries are not always repeated. Where two headings read alike, the source gives them in different places.

Key:
Type in all cases: cell-based
[1] = system: Balamuthia mandrillaris trophozoites; assay: CellTiter-Glo 2.0 trophocidal assay, B. mandrillaris; settings: for IC50: CTG method, 72 h, duplicate twofold serial dilutions from 10 µM, mean ± SD; for Selectivity Index (A549 IC50/B. mandrillaris IC50): SI = (IC50 A549)/(IC50 Amoeba); for potency against B. mandrillaris, in words: dose-response, CTG
Method: Pathogenic Balamuthia mandrillaris (CDC:[…]; American Type Culture Collection (ATCC) 50209), a GAE isolate, isolated from a pregnant baboon at the San Diego Zoo in 1986 was donated by Luis Fernando […] University, Mexico [43]. Trophozoites were routinely grown axenically in Balamuthia mandrillaris Itson (BMI) media at 37 °C, 5% CO2 in vented 75 cm^2 tissue culture flasks (Olympus, El Cajon, CA, USA), until the cells were 80-90% confluent. For sub-culturing, 0.25% Trypsin-EDTA (Gibco, Gaithersburg, MD, USA) cell detachment reagent was used to detach the cells from the culture flasks. The cells were collected by centrifugation at 4000 rpm at 4 °C. Complete BMI media is produced by the addition of 10% fetal bovine serum (FBS) and 125 μg of penicillin/streptomycin antibiotics. The trophocidal activity of compounds was assessed using the CellTiter-Glo 2.0 luminescent viability assay (Promega, Madison, WI, USA), as previously described. Trophozoites were routinely cultured as described above and only logarithmic trophozoites were used. […] Inhibitors were assessed for percent inhibition using the criteria of ≤33% growth inhibition (no inhibition), 33-67% growth inhibition (moderate inhibition), and ≥67% growth inhibition (strong inhibition). […] We used this process to reduce the number of potential false positives. […] All assays were incubated at each of the parasites' representative growth temperatures, described above, for 72 h. At the 72 h time point, 25 μL of CellTiter-Glo 2.0 reagent was added to all wells of the 96-well plates using the Biomek NX^P automated workstation. The plates were protected from light and contents were mixed using an orbital shaker at 300 rpm at room temperature for 2 min to induce cell lysis. After shaking, the plates were equilibrated at room temperature for 10 min to stabilize the luminescent signal. The adenosine triphosphate (ATP) luminescent signal (relative light units; RLUs) was measured at 490 nm with a SpectraMax I3X plate reader (Molecular Devices, Sunnyvale, CA, USA). Drug inhibitory concentration (IC50) curves were generated using total ATP RLUs, where controls were calculated as the average of replicates using the Levenberg-Marquardt algorithm, using DMSO as the normalization control, as defined in Collaborative Drug Discovery Inc. (CDD) Vault (Burlingame, CA, USA). Values reported are from a minimum of two biological replicates with standard deviations.

[2] = system: Naegleria fowleri trophozoites; assay: CellTiter-Glo 2.0 trophocidal assay, N. fowleri; settings: CTG method, 72 h, duplicate twofold serial dilutions from 10 µM, mean ± SD; read-out: N. fowleri Mean IC50 (µM) ± SD
Method: Pathogenic Naegleria fowleri (ATCC 30215), a clinical isolate obtained from a child in Adelaide, Australia, that died of PAM in 1969 was previously purchased from the American Type Culture Collection (ATCC). Trophozoites were routinely grown axenically at 34 °C in Nelson’s complete medium (NCM) in non-vented 75 cm^2 tissue culture flasks (Olympus, El Cajon, CA, USA), until the cells were 80–90% confluent. For sub-culturing, cells were placed on ice to detach the cells from the culture flasks. The cells were collected by centrifugation at 4000 rpm at 4 °C. Complete NCM media is produced by the addition of 10% FBS and 125 μg of penicillin/streptomycin antibiotics.
The trophocidal activity of compounds was assessed using the CellTiter-Glo 2.0 luminescent viability assay (Promega, Madison, WI, USA), as previously described. Trophozoites were routinely cultured as described above and only logarithmic trophozoites were used. In brief, B. mandrillaris, N. fowleri, or A. castellanii trophozoites cultured in their corresponding media were seeded at 16,000, 3000, or 1440 cells/well into white 96-well plates (Costar 3370), respectively. Initially all compounds were assessed in a single-point drug screen at 10 and 1 μM, as previously described. […] Control wells were supplemented with 0.1% (10 μM screening plate) or 0.01% (1 μM screening plate) DMSO, as the negative controls, or 12.5 μM of chlorhexidine, as the positive control. Following the single-point assays at 10 and 1 µM, we prioritized compounds for progression to IC50 determinations. […] We used this process to reduce the number of potential false positives. Drugs were cherry-picked, dissolved in the media specific to each parasite, and assessed in twofold serial dilutions from the highest concentration of 10 μM. All assays were incubated at each of the parasites’ representative growth temperatures, described above, for 72 h. At the 72 h time point, 25 μL of CellTiter-Glo 2.0 reagent was added to all wells of the 96-well plates using the Biomek NX^P automated workstation. The plates were protected from light and contents were mixed using an orbital shaker at 300 rpm at room temperature for 2 min to induce cell lysis. After shaking, the plates were equilibrated at room temperature for 10 min to stabilize the luminescent signal. The adenosine triphosphate (ATP) luminescent signal (relative light units; RLUs) was measured at 490 nm with a SpectraMax I3X plate reader (Molecular Devices, Sunnyvale, CA, USA). Drug inhibitory concentration (IC50) curves were generated using total ATP RLUs, where controls were calculated as the average of replicates using the Levenberg–Marquardt algorithm, using DMSO as the normalization control, as defined in Collaborative Drug Discovery Inc. (CDD) Vault (Burlingame, CA, USA). Values reported are from a minimum of two biological replicates with standard deviations.

[3] = system: Acanthamoeba castellanii trophozoites; assay: CellTiter-Glo 2.0 trophocidal assay, A. castellanii; settings: for IC50: CTG method, 72 h, duplicate twofold serial dilutions from 10 µM, mean ± SD; for potency against A. castellanii, in words: dose-response, CTG; for Selectivity Index (A549 IC50/A. castellanii IC50): SI = (IC50 A549)/(IC50 Amoeba)
Method: This isolate was also purchased from ATCC. Trophozoites were routinely grown axenically at 27 °C in Protease Peptone-Glucose Media (PG) in non-vented 75 cm^2 tissue culture flasks (Olympus, El Cajon, CA, USA), until the cells were 80–90% confluent. For sub-culturing, cells were mechanically harvested to detach the cells from the culture flasks. The cells were collected by centrifugation at 4000 rpm at 4 °C.
The trophocidal activity of compounds was assessed using the CellTiter-Glo 2.0 luminescent viability assay (Promega, Madison, WI, USA), as previously described. Trophozoites were routinely cultured as described above and only logarithmic trophozoites were used. […] Initially all compounds were assessed in a single-point drug screen at 10 and 1 μM, as previously described. […] We used this process to reduce the number of potential false positives. Drugs were cherry-picked, dissolved in the media specific to each parasite, and assessed in twofold serial dilutions from the highest concentration of 10 μM. All assays were incubated at each of the parasites’ representative growth temperatures, described above, for 72 h. At the 72 h time point, 25 μL of CellTiter-Glo 2.0 reagent was added to all wells of the 96-well plates using the Biomek NX^P automated workstation. The plates were protected from light and contents were mixed using an orbital shaker at 300 rpm at room temperature for 2 min to induce cell lysis. After shaking, the plates were equilibrated at room temperature for 10 min to stabilize the luminescent signal. The adenosine triphosphate (ATP) luminescent signal (relative light units; RLUs) was measured at 490 nm with a SpectraMax I3X plate reader (Molecular Devices, Sunnyvale, CA, USA). Drug inhibitory concentration (IC50) curves were generated using total ATP RLUs, where controls were calculated as the average of replicates using the Levenberg–Marquardt algorithm, using DMSO as the normalization control, as defined in Collaborative Drug Discovery Inc. (CDD) Vault (Burlingame, CA, USA). Values reported are from a minimum of two biological replicates with standard deviations.

[4] = system: A549 human lung carcinoma cells; assay: MTS cytotoxicity counter-screen of reconfirmed hits
Method: Cytotoxicity of the reconfirmed hits was determined by using the CellTiter 96® AQueous One Solution Cell Proliferation Assay (Promega, Madison, WI) on A549 human lung carcinoma cells. A549 cells were seeded at a concentration of 1.6 × 10^4 cells/mL in 96-well tissue culture plates (Corning, NY, USA), in the presence of serially diluted active hits against B. mandrillaris, N. fowleri, or A. castellanii. Positive control wells contained cells and media; negative control wells contained 0.1% DMSO. Cells were grown in F12K medium supplemented with 10% FBS and 1% gentamycin (all supplied from Fisher Scientific, Atlanta, GA, USA). The inhibitor concentration started at 10 µM and was diluted in doubling dilutions to assess cytotoxicity in comparison to the respective free-living amoeba. Total volume of each well was 100 µL and plates were incubated at 37 °C, 5% CO2 for 72 h. Next, 4 h before the time-point, 20 µL of MTS (Promega, Madison, WI, USA) was added to each well. Inhibition of A549 growth was assessed at the 72 h time-point measuring the optical density (OD) values at 490 nm using a SpectraMax I3X plate reader (Molecular Devices, Sunnyvale, CA, USA). Curve fitting using non-linear regression was carried out using the average of replicates and the Levenberg–Marquardt algorithm, using DMSO as the normalization control, as defined in CDD Vault (Burlingame, CA, USA).

[5] = MTS assay, 72 h, doubling dilutions from 10 µM, read-out: A549 Mean IC50
[6] = Homo sapiens, A549, MTS assay, 72 h, doubling dilutions from 10 µM, read-out: A549 Mean IC50

Compound | IC50 [1] | IC50 [3] | IC50 [4, 5] | IC50 [4, 6] | other results
Clc1cc(Cl)c2c(c1)CCc1ccccc1C2n1ccnc1 (centres unmarked) [Eberconazole] | > 10 µM | 3.7 ± 1.13 µM | > 10 µM |  | IC50 [2]: 1.22 ± 0.66 µM; IC50 ([3]; listed as eberconazole): ≤ 10 µM
Cc1ccc(N2CCC(CCOc3ccc(S(C)(=O)=O)cc3)CC2)nn1 [MMV1634394] | ≤ 10 µM and 8.05 µM |  | > 10 µM |  | 
CN1CCN(Cc2ccc(-c3cnc4[nH]cc(-c5ccc6[nH]ccc6c5)c4c3)cc2)CC1 [URMC-099-C] | 5.35 ± 1.63 µM |  |  | 4.2 µM | IC50 ([1]; Balamuthia mandrillaris): ≤ 10 µM; Selectivity Index (A549 IC50/B. mandrillaris IC50) [1]: 0.79
O=C(/C=C\n1cnc(-c2cc(C(F)(F)F)cc(C(F)(F)F)c2)n1)NNc1cnccn1 [Selinexor] | 9.2 ± 1.13 µM |  |  | > 10 µM | IC50 ([1]; Balamuthia mandrillaris): ≤ 10 µM; Selectivity Index (A549 IC50/B. mandrillaris IC50) [1]: ≥1.09
CCc1nc(N)nc(N)c1C#CC(C)c1cc(OC)cc(-c2ccncc2)c1 (centres unmarked) [MMV1580844] | 0.53 ± 0.11 µM |  | > 10 µM |  | potency against B. mandrillaris, in words [1]: nanomolar potency
Clc1ccc(Cn2c(CN3CCCC3)nc3ccccc32)cc1 [Clemizole] | 8.95 ± 1.48 µM |  |  | > 10 µM | IC50 ([1]; Balamuthia mandrillaris): ≤ 10 µM; Selectivity Index (A549 IC50/B. mandrillaris IC50) [1]: ≥1.12
O[C@@](Cn1cnnn1)(c1ccc(F)cc1F)C(F)(F)c1ccc(-c2ccc(OCC(F)(F)F)cc2)cn1 [MMV1634386] | > 10 µM | 0.16 ± 0.09 µM | > 10 µM |  | IC50 [2]: 2.4 ± 1.7 µM; potency against A. castellanii, in words [3]: nanomolar potency
CCCCC(CC)CNC(=N)NC(=N)NCCCCCCNC(=N)NC(=N)NCC(CC)CCCC (centres unmarked) [Alexidine] |  | 2.4 ± 1.56 µM |  | 2.1 µM | IC50 ([3]; listed as alexidine): ≤ 10 µM; Selectivity Index (A549 IC50/A. castellanii IC50) [3]: 0.88
CC(=O)N1CCN(c2ccc(OCC3COC(Cn4ccnc4)(c4ccc(Cl)cc4Cl)O3)cc2)CC1 (centres unmarked) [Ketoconazole] |  | 1.24 ± 0.8 µM |  | > 10 µM | IC50 ([3]; listed as ketoconazole): ≤ 10 µM
CCC(C)(C)c1ccc(CC(C)CN2C[C@@H](C)O[C@@H](C)C2)cc1 (some centres unmarked) [Amorolfine] |  | 1.63 ± 1.62 µM |  | > 10 µM | IC50 ([3]; listed as amorolfine): ≤ 10 µM; Selectivity Index (A549 IC50/A. castellanii IC50) [3]: ≥6.13
N#Cc1c(F)c(Cl)c(NCc2ccccc2)c(C#N)c1F [MMV1582496] |  | 0.61 ± 0.35 µM | > 10 µM |  | potency against A. castellanii, in words [3]: nanomolar potency
C(=C\c1nc2ccccc2[nH]1)/c1ccc2c(c1)OCO2 [MMV1582495] | 0.54 ± 0.04 µM |  | > 10 µM |  | potency against B. mandrillaris, in words [1]: nanomolar potency
O=C(O)C(F)(F)F [Trifluoroacetic acid] |  | 1.97 ± 1 µM |  |  | IC50 ([3]; listed as trifluoroacetic acid): ≤ 10 µM; Selectivity Index (A549 IC50/A. castellanii IC50) [3]: ≥5.10; IC50 ([4]; Homo sapiens, A549, 72 h, read-out: A549 Mean IC50 (µM)): > 10 µM
O=C1C=C(c2ccccc2)S(=O)(=O)c2ccccc21 [1,1-dioxide 1-thioflavone] | 0.37 ± 0.01 µM | > 10 µM | > 10 µM |  | potency against B. mandrillaris, in words [1]: nanomolar potency; IC50 [2]: 5 µM
O=C(/C(=C/c1ccc(Cl)cc1Cl)n1ccnc1)c1ccc(Cl)cc1 [MMV1634491] | > 10 µM |  | > 10 µM |  | IC50 [2]: 5.15 ± 1.35 µM
Cc1nc2ccc(Oc3ccccc3)cc2c2c1CCN2CCc1ccccc1 [MMV1634399] | 0.73 ± 0.28 µM |  | > 10 µM |  | potency against B. mandrillaris, in words [1]: nanomolar potency
